Laboratory results published in US7807845B2, “Resistance-repellent retroviral protease inhibitors” (priority 2004, dated 2010).
pIC50, pKi: −log10 of the molar value.

How the values were obtained:
wild type HIV PR = target: T1, wild type HIV PR (Human immunodeficiency virus type 1 group M subtype B, UniProt P04585); experiment: HIV PR inhibition assay, wild type; format: biochemical
T1 construct: Recombinant wild type and mutant HIV PRs were expressed using pET21 vector (Novagen) in E. coli cells; made in house
Description: (§1) Expression and purification of WT and mutant HIV PR. Recombinant wild type and mutant HIV PRs were expressed using pET21 vector (Novagen) in E. coli cells, and purified and refolded as described previously (Gulnik et al, 1995). The cells were resuspended in 50 mM tris-HCl buffer, pH 8.0, 25 mM NaCl, 0.2% β-mercaptoethanol (buffer A), sonicated and centrifuged. Inclusion bodies were washed first with buffer A, then with buffer A containing respectively 0.1% Triton X-100, 1 M NaCl, 1 M urea, and finally with buffer A alone. Purified inclusion bodies were solubilized by addition of buffer A containing 8 M urea at room temperature. The solution was clarified by centrifugation and loaded onto 2.6×9.5 cm Q-Sepharose column. Flow-through fractions were collected and dialyzed against 3 changes of refolding buffer, which consists of 25 mM Na-phosphate, pH 7.0, 25 mM NaCl, 0.2% β-mercaptoethanol and 10% glycerol, aliquoted and stored at −80° C.
(§2) Inhibition constants were determined using the fluorogenic substrate ArgGlu(EDANS)[…]DABCYL)Arg (Amichem, USA). HIV Protease was preincubated for 0.5-1 min at ambient temperature on a 96 well plate with different concentrations of inhibitor in 0.05 M sodium phosphate buffer, pH 6.5, containing 20 mM NaCl, 2 mM DTT and 0.01% Tween-20. The reaction was initiated by the addition of substrate. Final enzyme concentration was 2-5 nM for WT and 2-30 nM for mutants. Substrate concentration was 20 uM and DMSO concentration 2%. The increase in fluorescence intensity at the emission maximum of 520 nm (excitation wavelength 340 nm, cut-off filter 495 nm) was monitored as a function of time using a Spectramax Gemini fluorescence plate reader (Molecular Devices, CA USA). The initial rate of hydrolysis was calculated by first-degree polynomial fit using SoftMAX operating software. Data were fitted to the Michaelis-Menten equation for competitive inhibitors. For tight-binding inhibitors the data were fitted by nonlinear regression analysis to the equation V=V0/2Et({[Ki(1+S/Km)+It−Et]^2+4Ki(1+S/Km)Et}^1/2−[Ki(1+S/Km)+It−Et]) (Williams and Morrison, 1979) with the program GraFit, version 5 (Erithacus Software Limited, UK), where V and V0 are initial velocities with and without inhibitor, Km is the Michaelis-Menten constant and S, Et and It are the concentrations of substrate, active enzyme and inhibitor respectively.

mutant HIV PR (Mutant 8) = mutant HIV PR (Mutant 8) (Human immunodeficiency virus type 1 group M subtype B, UniProt P04585); experiment: HIV PR inhibition assay, Mutant 8; format: biochemical; conditions: read-out: Ki Mutant 8; recombinant mutant HIV PR, fluorogenic substrate, pH 6.5
Description: as §1, §2

mutant HIV PR (Mutant 9) = mutant HIV PR (Mutant 9) (Human immunodeficiency virus type 1 group M subtype B, UniProt P04585); experiment: HIV PR inhibition assay, Mutant 9; format: biochemical; conditions: read-out: Ki Mutant 9; recombinant mutant HIV PR, fluorogenic substrate, pH 6.5
Description: as §1, §2

[1] = target: mutant HIV PR (Mutant 10) (Human immunodeficiency virus type 1 group M subtype B, UniProt P04585); experiment: HIV PR inhibition assay, Mutant 10; format: biochemical; conditions: read-out: Ki Mutant 10; recombinant mutant HIV PR, fluorogenic substrate, pH 6.5
Description: as §1, §2

WT=HIVHXB2 = experiment: Antiviral assay in MT-4 cells (MTT), WT virus; format: cell-based, HIV; conditions: Human immunodeficiency virus 1, MT4, 120 h, HIVHXB2, 5 days
Description: (§3) MT-4 cells were obtained from the AIDS Research and Reference Reagent Program (ARRRP, Division of AIDS, NIAID, NIH: MT-4 from Dr. D. Richman). Cells were propagated in RPMI 1640 supplemented with 10% fetal bovine serum, 50U of penicillin and 50 μg of streptomycin per ml (Invitrogen, Carlsbad Calif.). The following HIV viruses were used for testing of antiviral potency of compounds: WT=HIVHXB2; recombinant HIVHXB2 virus from drug resistant patient isolates; HIVmutant10 (16 mutations); HIVmutant8 (14 mutations); HIVmutant9 (10 mutations).
(§4) The potency of test compound was determined as previously described (ref 1-3) with minor modifications. MT-4 cells (1.5×10^4/ml) were exposed to 200 50 % tissue culture infective doses (TCID50) of viruses in the presence of various concentrations of test compound in 96 well microtiter plates and incubated at 37° C. for 5 days. 3-(4,5-dimethylthiazol-2-yl)-2,5-diphenytetrazolium bromide (MTT) solution was added to a final concentration of 0.75 mg/ml, and plates were incubated 1 hour. After incubation cells were dissolved in isopropanol/Triton-X 100/HCl (1000:50:25) solution. Absorbance was monitored in a microplate reader (Spectramax, Molecular Devices) at 540 nm and 690 nm. Cytotoxicity of compounds was tested in a similar assay in the absence of virus.

[2] = tested on: HIVmutant8 (14 mutations); experiment: Antiviral assay in MT-4 cells (MTT), mutant 8 virus; format: cell-based, HIV; conditions: Human immunodeficiency virus 1, MT4, 120 h, read-out: IC50 Mutant 8
Description: as §3, §4

[3] = tested on: HIVmutant9 (10 mutations); experiment: Antiviral assay in MT-4 cells (MTT), mutant 9 virus; format: cell-based, HIV; conditions: Human immunodeficiency virus 1, MT4, 120 h, read-out: IC50 Mutant 9
Description: as §3, §4

[4] = tested on: HIVmutant10 (16 mutations); experiment: Antiviral assay in MT-4 cells (MTT), mutant 10 virus; format: cell-based, HIV; conditions: Human immunodeficiency virus 1, MT4, 120 h, read-out: IC50 Mutant 10
Description: as §3, §4

SMILES	pKi (wild type HIV PR)	pKi (mutant HIV PR (Mutant 8))	pKi (mutant HIV PR (Mutant 9))	pKi [1]	pIC50 (WT=HIVHXB2)	pIC50 [2]	pIC50 [3]	pIC50 [4]
CC(C)CN(C[C@@H](O)[C@H](Cc1ccccc1)NC(=O)O[C@H]1CO[C@H]2OCC[C@H]21)S(=O)(=O)c1ccc2c(c1)/C(=C/N(C)C)C(=O)N2 [Compound 21, {1-Benzyl-3-[(3-dimethylaminomethylene-2-oxo-2,3-dihydro-1H-indole-5-sulfonyl)-isobutyl-amino]-2-hydroxy-propyl}-carbamic acid hexahydro-furo[2,3-b]furan-3-yl ester]	> 10.00	> 9.52	> 10.00	> 9.00	7.03	7.05	7.19	7.15
CC(C)CN(C[C@@H](O)[C@H](Cc1ccccc1)NC(=O)O[C@H]1CO[C@H]2OCC[C@H]21)S(=O)(=O)c1ccc2c(c1)/C(=C/NCC(C)(C)C)C(=O)N2 [Compound 22, [1-Benzyl-3-({3-[(2,2-dimethyl-propylamino)-methylene]-2-oxo-2,3-dihydro-1H-indole-5-sulfonyl}-isobutyl-amino)-2-hydroxy-propyl]-carbamic acid hexahydro-furo[2,3b]furan-3-yl ester]	> 10.00	> 9.52	9.82	> 9.00	8.35	7.89	8.02	7.57
CCCN(C=C1C(=O)Nc2ccc(S(=O)(=O)N(CC(C)C)CC(O)C(Cc3ccccc3)NC(=O)OC3COC4OCCC34)cc21)CCC (stereo not shown) [Compound 32, {1-Benzyl-3-[(3-dipropylaminomethylene-2-oxo-2,3-dihydro-1H-indole-5-sulfonyl)-isobutyl-amino]-2-hydroxy-propyl}-carbamic acid hexahydro-furo[2,3-b]furan-3-yl ester]	> 10.00	> 9.52	> 10.00	> 9.00	8.00	7.62	7.92	7.24
CC(NCC(F)(F)F)=C1C(=O)Nc2ccc(S(=O)(=O)N(CC(C)C)CC(O)C(Cc3ccccc3)NC(=O)OC3COC4OCCC34)cc21 (stereo not shown) [Compound 45, [1-Benzyl-2-hydroxy-3-(isobutyl-{2-oxo-3-[1-(2,2,2-trifluoro-ethylamino)-ethylidene]-2,3-dihydro-1H-indole-5-sulfonyl}-amino)-propyl]-carbamic acid hexahydro-furo[2,3-b]furan-3-yl ester]	> 10.00	> 9.52	> 10.00	8.51	7.89	7.59	–	7.28
CC(C)CCNC=C1C(=O)Nc2ccc(S(=O)(=O)N(CC(C)C)CC(O)C(Cc3ccccc3)NC(=O)OC3COC4OCCC34)cc21 (stereo not shown) [Compound 66, [1-Benzyl-2-hydroxy-3-(isobutyl-{3-[(3-methyl-butylamino)-methylene]-2-oxo-2,3-dihydro-1H-indole-5-sulfonyl}-amino)-propyl]-carbamic acid hexahydro-furo[2,3-b]furan-3-yl ester]	> 10.00	> 9.52	> 10.00	> 9.00	7.92	7.59	–	7.41
CC(C)CN(CC(O)C(Cc1ccccc1)NC(=O)OC1COC2OCCC12)S(=O)(=O)c1ccc2c(c1)C(=CNCc1ccc3ccccc3n1)C(=O)N2 (stereo not shown) [Compound 130]	10.00	> 9.52	> 10.00	> 9.00	7.49	–	7.64	7.57
CCOC(=O)CN(C=C1C(=O)Nc2ccc(S(=O)(=O)N(CC(C)C)CC(O)C(Cc3ccccc3)NC(=O)OC3COC4OCCC34)cc21)Cc1ccccc1 (stereo not shown) [Compound 138]	> 10.00	> 9.52	9.96	8.72	7.51	–	7.82	7.80
